Results reported in patent US10525064B2, “Anticancer adjuvant containing panaxadiol ginsenocide compound” (priority 2015, dated 2020).
In brackets after ≈: the same amount, converted by molar mass.

Columns and labels:
MCF-7 cells [1] = assay: WST-1 viability assay, PPD-type ginsenoside compounds alone; format: cell-based, human; conditions: 0-200 μg/mL, 24 hours, FIG. 1
Description: First, MCF-7 cells, a human breast cancer cell line, were inoculated into DMEM medium containing 10% FBS and 1% penicillin/streptomycin, cultured in conditions of 5% CO2 and 37° C. When the cultured MCF-7 cells were saturated the cells were sub-cultured at intervals of 3 days to 5 days.
Then, the cultured MCF-7 cells were treated with various concentrations (0 μg/mL, 5 μg/mL, 10 μg/mL, 20 μg/mL, 50 μg/mL, 100 μg/mL, or 200 μg/mL) of PPD-type ginsenoside compounds (F2, Rh2, C-K, or PPD) for 24 hours, and the viability of these cells was measured by performing WST-1 assay on the MCF-7 cells (FIG. 1). In particular, WST-1 assay was performed by inoculating each of the MCF-7 cells in a medium containing 10% EZ-Cytox and reacting at 37° C. for 1.5 hours. The level of water-soluble formazan dye produced by the viable cells was measured by absorbance at 450 nm and the results were analyzed to calculate the cell viability of the cells.

MCF-7 cells [2] = assay: WST-1 viability assay, ginsenoside pretreatment followed by doxorubicin or tamoxifen; format: cell-based; conditions: for effect on anticancer activity of doxorubicin: then doxorubicin 5 μg/mL 24 hours, FIG. 2A; for anticancer activity of doxorubicin with ginsenoside compared to doxorubicin alone: ginsenoside 10 μg/mL, doxorubicin 0-50 μg/mL
Description: Specifically, each of the PPD-type ginsenoside compounds (F2, Rh2, C-K, or PPD) at a concentration of 10 μg/mL was added to MCF-7 cells, cultured for 12 hours, and treated with 20 μM tamoxifen or doxorubicin (5 μg/mL) and cultured for 24 hours. Upon completion of the cultivation, the viability of MCF-7 cells was compared by WST-1 assay (FIG. 2A).
In this regard, to determine whether the C-K or PPD affects the treatment concentration of doxorubicin, the PPD-type ginsenoside compound (C-K or PPD) was added to the MCF-7 cells at a concentration of 10 μg/mL and cultured for 12 hours. Then, the MCF-7 cells were treated with doxorubicin at various concentrations (0 μg/mL, 0.1 μg/mL, 0.5 μg/mL, 1 μg/mL, 2 μg/mL, 5 μg/mL, 10 μg/mL, and 50 μg/mL) and cultured for 24 hours. Upon completion of the culture, the viability of the MCF-7 cells and the LC50 values calculated therefrom were compared by WST-1 assay (FIG. 2B).

[3] = system: phosphorylated JNK, cleaved-PARP, cleaved-caspase-9 in MCF-7 cells; assay: Western blot of apoptosis-related proteins; format: cell-based, human; conditions: for level of cleaved-caspase-9 / levels of phosphorylated JNK and cleaved-PARP: ginsenoside 10 μg/mL with doxorubicin 5 μg/mL
Description: MCF-7 cells were charged with a medium containing C-K or PPD (10 μg/mL) and cultured for 12 hours, and the medium was replaced with a medium containing C-K or PPD (10 μg/mL) and doxorubicin (0 μg/mL or 5 μg/mL) and cultured for 24 hours. The cells, upon completion of culture, were disrupted and western blot analyses were performed treated with respect to anti-phosphorylated JNK antibody, anti-PARP antibody, anti-cleaved-PARP antibody, and anti-caspase-9 antibody or anti-cleaved-caspase-9 antibody (FIG. 3A).
Accordingly, MCF-7 cells were charged with a medium containing PPD (10 μg/mL) and cultured for 12 hours, and the medium was replaced with a medium containing PPD (10 μg/mL) and doxorubicin (5 μg/mL) and cultured for 0 hours, 0.5 hours, 1 hour, 2 hours, 4 hours, or 6 hours. The same western blot analysis was performed using the cultured cells (FIG. 3B). In particular, as a comparative group, cells cultured in a medium containing doxorubicin alone were used instead of the medium containing PPD and doxorubicin.

MCF-7 cells [4] = assay: Anticancer activity with PARP inhibitor or caspase-9 inhibitor pretreatment; format: cell-based, human; conditions: FIG. 3C; for anticancer activity with PARP activity inhibitor, ginsenoside and doxorubicin treated simultaneously: 3-AB pretreatment, ginsenoside 10 μg/mL, doxorubicin 5 μg/mL
Description: Specifically, a medium containing C-K or PPD (10 μg/mL) was added to MCF-7 cells pretreated with Z-LEHD-FMK (i.e., an inhibitor of caspase-9) or 3-AB (i.e., an inhibitor of PARP) and cultured for 12 hours. The medium was then replaced with a medium containing doxorubicin (0 μg/mL or 5 μg/mL) and cultured for 24 hours. The same western blot analysis was performed using the cultured cells (FIG. 3C).

[5] = system: cytochrome-C release in MCF-7 cells; assay: Cytochrome-C release from mitochondria, immunofluorescent staining; format: cell-based, human; conditions: for level of cytochrome-C release compared to doxorubicin treatment alone: then doxorubicin 5 μg/mL 4 hours; for cells in which cytochrome-C was released, of the entire cells: 6 hours after the treatment, FIG. 4B
Description: MCF-7 cells were charged with a medium containing C-K or PPD (10 μg/mL) and cultured for 24 hours, and the medium was replaced with a medium containing doxorubicin (5 μg/mL) and cultured for 0 hours or 4 hours. The cells, upon completion of culture, were fixed with 4% paraformaldehyde, perforated by adding 0.5% Triton X-100 solution thereto, and the cells were immunostained with anti-cytochrome-C antibody for 30 minutes. Upon completion of the staining, the cells were washed with PBS, reacted with fluorescently-labeled secondary antibody for 30 minutes, washed with PBS, and then photographed using a confocal microscope to measure the levels of fluorescence developed (FIG. 4A).
In this regard, the present inventors have attempted to confirm whether the level of cytochrome-C release can be changed by the treatment time of doxorubicin. That is, the immunostaining was performed in the same manner as described above, except that MCF-7 cells were charged with a medium containing C-K or PPD (10 μg/mL) and cultured for 24 hours, and the medium was replaced with a medium containing doxorubicin (5 μg/mL), and the cells which were cultured for 0 hours, 0.5 hours, 1 hour, 2 hours, 4 hours, or 6 hours were used. Then, the number of cells in which cytochrome-C was released from mitochondria to cytoplasm was measured (FIG. 4B). In particular, an experimental group not treated with ginsenoside was used as a control.

[6] = system: mitochondria of MCF-7 cells; assay: Mitochondria immunostaining with anti-Tom-20 antibody; format: cell-based, human; conditions: ginsenoside 10 μg/mL, 24 hours, FIG. 5A
Description: That is, MCF-7 cells were charged with a medium containing C-K or PPD (10 μg/mL) and cultured for 24 hours. The cells, upon completion of culture, were fixed with 4% paraformaldehyde, perforated by adding 0.5% Triton X-100 solution thereto, and mitochondria of the cells were immunostained with anti-Tom-20 antibody. Upon completion of staining, the cells were washed with PBS and then photographed using a confocal microscope to measure the levels of fluorescence developed (FIG. 5A).

[7] = system: Drp1, Fis1, OPA-3, Mfn1, Mfn2, OPA1 in MCF-7 cells; assay: Western blot of mitochondrial fission and fusion proteins; format: cell-based, human; conditions: ginsenoside 10 μg/mL, 24 hours, FIG. 5B
Description: Accordingly, western blot analysis was performed with respect to each of the cultured cells and the expression levels of the proteins (Drp1, Fis1, and OPA-3) involved in mitochondrial fission and those of the proteins (Mfn1, Mfn2, and OPA1) involved in mitochondrial fusion were compared (FIG. 5B).

MCF-7 cells [8] = assay: WST-1 viability assay in siRNA-treated cells with doxorubicin or tamoxifen; format: cell-based, human; conditions: 5 μM doxorubicin or 20 μM tamoxifen, 24 hours, FIG. 6B; for change of anticancer activity where mitochondrial fission was induced by Mfn1 or Mfn2 siRNA: Mfn2 versus Mfn1 inhibition; for anticancer activity (viability of MCF-7 cells): siRNA-introduced cells
Description: Meanwhile, each of the synthesized siRNAs was introduced into MCF-7 cells and cultured for 12 hours. The cells were cultured further for 48 hours in a normal medium containing no siRNA, treated with 5 μM doxorubicin or 20 μM tamoxifen, and cultured for 24 hours. Upon completion of culture, the viability of the MCF-7 cells was compared by WST-1 assay (FIG. 6B). In particular, an experimental group not treated with doxorubicin or tamoxifen was used as a control.

[9] = ginsenoside 10 μg/mL 24 hours, FIG. 4A
[10] = ginsenoside 10 μg/mL 24 hours, then doxorubicin 5 μg/mL

CC(C)=CCC[C@](C)(O[C@@H]1OC(CO)[C@@H](O)C(O)C1O)C1CC[C@]2(C)C1[C@H](O)CC1[C@@]3(C)CCC(O)C(C)(C)C3CC[C@]12C (stereo partly shown) [C-K, compound-K]
anticancer activity (viability of MCF-7 cells) (MCF-7 cells [1]): relatively excellent anticancer activity | effect on anticancer activity of doxorubicin (MCF-7 cells [2]; ginsenoside 10 μg/mL 12 hours): could enhance the anticancer activity of doxorubicin | anticancer activity of doxorubicin with ginsenoside compared to doxorubicin alone (MCF-7 cells [2]; FIG. 2B): increased | level of cleaved-caspase-9 ([3]; 24 hours, FIG. 3A): significantly increased | levels of phosphorylated JNK and cleaved-PARP ([3]; 24 hours, FIG. 3A): not affected | anticancer activity with PARP activity inhibitor, ginsenoside and doxorubicin treated simultaneously (MCF-7 cells [4]): slightly recovered | level of cytochrome-C release compared to doxorubicin treatment alone [5, 9]: increased the level of cytochrome-C release | cells in which cytochrome-C was released, of the entire cells [5, 10]: 20% | mitochondrial damage [6]: damage was observed | expression level of Mfn2 (mitochondrial fusion protein) [7]: decreased | expression level of OPA-3 (mitochondrial fission protein) [7]: increase

CC(C)=CCC[C@](C)(O[C@@H]1O[C@H](CO)[C@@H](O)[C@H](O)[C@H]1O)[C@H]1CC[C@]2(C)[C@@H]1[C@H](O)C[C@@H]1[C@@]3(C)CC[C@H](O[C@@H]4O[C@H](CO)[C@@H](O)[C@H](O)[C@H]4O)C(C)(C)[C@@H]3CC[C@]12C [F2, reference compound]
LC50 of doxorubicin treated simultaneously with ginsenoside (MCF-7 cells [2]; ginsenoside 10 μg/mL 12 hours, then doxorubicin 0-50 μg/mL 24 hours, FIG. 2B): about 10 μg/mL | effect on anticancer activity of doxorubicin (MCF-7 cells [2]; ginsenoside 10 μg/mL 12 hours): no particular effect on doxorubicin

CC(C)=CCC[C@](C)(O)[C@H]1CC[C@]2(C)[C@@H]1[C@H](O)C[C@@H]1[C@@]3(C)CC[C@H](O)C(C)(C)[C@@H]3CC[C@]12C [PPD, protopanaxadiol]
anticancer activity (viability of MCF-7 cells) (MCF-7 cells [1]): relatively excellent anticancer activity | effect on anticancer activity of doxorubicin (MCF-7 cells [2]; ginsenoside 10 μg/mL 12 hours): could enhance the anticancer activity of doxorubicin | anticancer activity of doxorubicin with ginsenoside compared to doxorubicin alone (MCF-7 cells [2]; FIG. 2B): increased | formation of cleaved-PARP and cleaved-caspase-9 according to treatment time ([3]; PPD 10 μg/mL with doxorubicin 5 μg/mL, 0-6 hours, versus doxorubicin alone, FIG. 3B): formed more rapidly | level of cleaved-caspase-9 ([3]; 24 hours, FIG. 3A): significantly increased | levels of phosphorylated JNK and cleaved-PARP ([3]; 24 hours, FIG. 3A): not affected | anticancer activity with PARP activity inhibitor, ginsenoside and doxorubicin treated simultaneously (MCF-7 cells [4]): slightly recovered | level of cytochrome-C release compared to doxorubicin treatment alone [5, 9]: increased the level of cytochrome-C release | cells in which cytochrome-C was released, of the entire cells [5, 10]: 43% | mitochondrial damage [6]: damage was observed | expression level of Mfn2 (mitochondrial fusion protein) [7]: decreased | expression level of OPA-3 (mitochondrial fission protein) [7]: increase

COc1cccc2c1C(=O)c1c(O)c3c(c(O)c1C2=O)C[C@@](O)(C(=O)CO)C[C@@H]3O[C@H]1C[C@H](N)[C@H](O)[C@H](C)O1 [doxorubicin, reference compound]
CC50 (MCF-7 cells [2]; Homo sapiens, MCF7, 24 h, read-out: LC50 of doxorubicin): ~10 µg/mL (≈ 18.4 µM) | levels of phosphorylated JNK, cleaved-PARP, and cleaved-caspase-9 ([3]; doxorubicin 5 μg/mL, 24 hours, FIG. 3A): increased | anticancer effect of doxorubicin with PARP or caspase-9 activity inhibitor (MCF-7 cells [4]; Z-LEHD-FMK or 3-AB pretreatment, doxorubicin 5 μg/mL 24 hours): inhibited | cells in which cytochrome-C was released, of the entire cells ([5]; doxorubicin 5 μg/mL alone (control)): 7% | level of cytochrome-C release compared to no doxorubicin treatment ([5]; doxorubicin 5 μg/mL, 4 hours, FIG. 4A): increased the level of cytochrome-C release | change of anticancer activity where mitochondrial fission was induced by Mfn1 or Mfn2 siRNA (MCF-7 cells [8]): further increased | anticancer activity (viability of MCF-7 cells) (MCF-7 cells [8]): significantly high level of anticancer activity

CC/C(=C(\c1ccccc1)c1ccc(OCCN(C)C)cc1)c1ccccc1 [tamoxifen]
change of anticancer activity where mitochondrial fission was induced by Mfn1 or Mfn2 siRNA (MCF-7 cells [8]): no difference in anticancer activity | anticancer activity (viability of MCF-7 cells) (MCF-7 cells [8]): showed anticancer activity
